Key:
[1] = system: IL-8-induced Ca^2+ signal in neutrophils; assay: intracellular Ca2+ flux by Fluo-4 time-resolved flow cytometry; type: cell-based, human; settings: 10 μM, RT 1 hour; 1 μg·mL^−1 IL-8
Protocol: To monitor the dynamics of intracellular calcium (Ca^2+) flux, neutrophils (2×10^6 cells·mL^−1 in RPMI-1640 without phenol red plus 2% HSA) were incubated with Fluo-4 (4 μg·mL^−1) for one hour at RT. After washes, neutrophils were resuspended in RPMI-1640 without phenol red plus 2% HSA and assessed by an LSRII analyzer (BD Biosciences, San Jose, CA). One minute after analyzing, 1 μg·mL^−1 IL-8 was added to the cells. Cells were put back into the analyzer for another 9 minutes. The curves showing the dynamics of intracellular Ca^2+ flux (FIG. 2H) were generated by FlowJo software (version 10.6). The quantification of Fluo-4 MFI (FIG. 2I) was analyzed by FlowJo software (version 10.6) and obtained from three individual experiments.

[2] = system: Rac-1 activation in HL60-CXCR2 or HL60 cells; assay: Rac-1-GTP pull-down and western blot in HL60 / HL60-CXCR2 cells; type: cell-based; settings: 10 μM, RT 1 hour
Protocol: The HL60 cells and CXCR2-expressing HL60 cells (HL60-CXCR2)(50) were gifts from Dr. Orion D. Weiner at the University of California San Francisco and Dr. Ann Richmond at the Vanderbilt University School of Medicine, respectively. HL60-CXCR2 cells were selected with G418 ([…]) to maintain CXCR2 expression. Cells were maintained in culture medium (RPMI-1640, 10% FBS, 100 μg·mL^−1 penicillin, 100 μg·mL^−1 streptomycin, and 250 ng·mL^−1 amphotericin B) at 37° C. and 5% CO2. In most experiments, cells were differentiated with 1.3% DMSO for 7 days before assays. Cells were checked monthly for mycoplasma infection using the e-Myco plus Mycoplasma PCR Detection Kit.
After washes, cells were resuspended in RPMI-1640 without phenol red (10^7 cells·mL^−1) and incubated with or without stimulators (100 nM fMLP for HL60, 1 μg·mL^−1 IL-8 for HL60-CXCR2) at RT for 1 minute. Cells were lysed by 1:1 addition of 2× Triton X-100 lysis buffer (final concentration: 1% Triton X-100, 50 mM HEPES pH 7.0, 150 mM NaCl, 10% glycerol, 1.5 mM MgCl2, 1 mM EGTA, 1 mM sodium orthovanadate, 1 mM phenylmethylsulfonyl fluoride, plus protease inhibitor mixture—one Pierce protease inhibitor mini-tablet per 5 mL 2× buffer) on ice for 5 minutes. After centrifuging at 16,000×g, 4° C. for 8 minutes, supernatants were saved as protein samples.

[3] = system: Rac-1 activation in human neutrophils; assay: Rac-1-GTP pull-down and western blot in human neutrophils; type: cell-based; settings: 10 μM, RT 1 hour, IL-8 1 μg·mL^−1, increase about 60% without drug
human neutrophils = assay: total ROS production of isolated human neutrophils after PMA; type: cell-based; settings: 10 μM; after 50 min of 100 nM PMA; ICAM-1-coated wells
Protocol: ROS production of isolated human neutrophils was quantified by using the Total ROS Assay kit from Invitrogen. A black, clear bottom, non-treated 96-well plate was used in this assay. Before the assay, the 96-well plate was coated with 10 μg·mL^−1 human ICAM-1-Fc at RT for 2 hours and washed twice with PBS. […] After centrifuging at 300×g, RT for 2 min, cells were resuspended at 10^6 cells·mL^−1 in the ROS Assay Stain Solution from the kit and incubated with 2 μg·mL^−1 mouse anti-human CD18 blocking mAb (TS1/18 to block neutrophil adhesion) or isotype control at RT for 10 min. The 100 μL·well^−1 neutrophils (3 replicates per group) were seeded into the ICAM-1-coated 96-well plate. The background ROS before stimulation was measured by Cytation 1 Cell Imaging Multi-Mode Reader (Filter set: Green, Ex: 485/20 nm, Em: 528/20 nm, BioTek, Santa Clara, CA). Then 100 nM PMA was added to each well, and ROS production was measured by Cytation 1 Cell Imaging Multi-Mode Reader every 5 minutes.

neutrophils = settings: reported; cited from earlier work
[4] = system: LPS-induced systemic inflammation / acute lung injury; settings: reported, cited from earlier work

SMILES: CC(C)(C)C(=O)/C(=C\c1cccc([N+](=O)[O-])c1)n1cncn1 [Nexinhib20, 4,4-dimethyl-1-(3-nitrophenyl)-2-(1H-1,2,4-triazol-1-yl)-1-penten-3-one]
- IL-8-induced Ca^2+ signal (Fluo-4) [1]: potently blocked
- IL-8-induced increase of Rac-1-GTP ([2]; HL60-CXCR2 cells, IL-8 1 μg·mL^−1, 1 minute, increase about 80% without drug): eliminated these increases
- fMLP-induced increase of Rac-1-GTP ([2]; HL60 cells, fMLP 100 nM, 1 minute, increase about 50% without drug): eliminated these increases
- IL-8-induced increase of Rac-1-GTP [3]: eliminated these increases
- total ROS production (human neutrophils): significantly reduced
- inhibition of neutrophil extracellular superoxide anion production (neutrophils): about 50%
- recruitment of neutrophils to the liver and kidney ([4]; LPS-induced systemic inflammation model): inhibit recruitment of neutrophils
- recruitment of neutrophils to lung lumen and parenchyma ([4]; acute LPS-induced lung injury mouse model): inhibit recruitment of neutrophils

— patent US20240041838A1, “METHODS AND COMPOSITIONS FOR INHIBITION OF NEUTROPHIL RECRUITMENT IN MYCOCARDIAL ISCHEMIA-REPERFUSION INJURY” (University of Connecticut, priority 2022, published 2024)
